Patent publication US20150183781A1, “5-(1H-Pyrazol-4-yl)-1H-Pyrrolo[2,3-b]Pyridine Derivatives as Kinase Inhibitors” (AURIGENE DISCOVERY TECHNOLOGIES LIMITED, priority 2012, published 2015)
Structures can show the parent of a compound that is named as a salt.

Target: T1, recombinant human ALK enzyme (Homo sapiens, UniProt Q9UM73)
T1 construct: purchased Carna Biosciences 08-518
Assay: ALK WT cell free assay (TR-FRET)
Assay type: biochemical
Settings: 1 μM ATP; for IC50: 10 point dose response, read-out: IC50 value (in range); for inhibition at 1 µM: compound 1 μM, read-out: Percentage Inhibition 1 μM; for inhibition at 1 µM / inhibition at 0.1 µM: 30 min pre-incubation; for inhibition at 0.1 µM: compound 100 nM, read-out: Percentage Inhibition 100 nM
Method: The ALK WT cell free assay was set up to evaluate the effects of these compounds as inhibitors of ALK enzyme. The enzymatic assay was standardized using recombinant human ALK enzyme (Cat#08-518) from Carna Biosciences using Ultra Light Poly GT (Cat# TRF […]) from Perkin Elmer as a substrate. TR-FRET (Time resolved fluorescence resonance energy transfer) detection technology was used for the read out. […] The assay reaction time with the substrate was 30 minutes after which the antibody detection mix is added. The TR-FRET signal (Excitation at 340 nm, Emission at 615 nm and 665 nm) was read with 50 μs delay time on Victor^3 V fluorimeter. The data is calculated using the ratio of reading at 665 nm to 615 nm. […] Compounds were screened at 100 nM and 1 μM concentrations with pre-incubation of the enzymes with compound for 30 minutes.

T1 sequence (Q9UM73 1058-1620 limits assumed): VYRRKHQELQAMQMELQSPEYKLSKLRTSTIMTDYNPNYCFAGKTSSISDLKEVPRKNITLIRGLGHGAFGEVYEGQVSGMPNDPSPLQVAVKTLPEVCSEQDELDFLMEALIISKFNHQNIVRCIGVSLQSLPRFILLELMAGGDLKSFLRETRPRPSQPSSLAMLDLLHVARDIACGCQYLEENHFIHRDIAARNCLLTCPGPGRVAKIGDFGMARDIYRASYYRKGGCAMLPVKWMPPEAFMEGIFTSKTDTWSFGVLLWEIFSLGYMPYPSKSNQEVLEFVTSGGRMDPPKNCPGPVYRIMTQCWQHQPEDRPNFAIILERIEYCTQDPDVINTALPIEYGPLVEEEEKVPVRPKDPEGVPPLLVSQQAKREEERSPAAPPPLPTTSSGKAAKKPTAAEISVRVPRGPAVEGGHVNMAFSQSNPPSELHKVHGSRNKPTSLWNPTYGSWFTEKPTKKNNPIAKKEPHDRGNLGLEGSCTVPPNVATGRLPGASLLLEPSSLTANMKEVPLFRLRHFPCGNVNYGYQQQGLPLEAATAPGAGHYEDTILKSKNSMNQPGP

| Compound | IC50 [nM] | inhibition at 1 µM [%] | inhibition at 0.1 µM [%] |
| --- | --- | --- | --- |
| Cn1cc(-c2cnc3[nH]cc(-c4cnn(Cc5ccccc5F)c4)c3c2)cn1 [Example-1, 3-(1-(2-fluorobenzyl)-1H-pyrazol-4-yl)-5-(1-methyl-1H-pyrazol-4-yl)-1H-pyrrolo[2,3-b]pyridine] | 50 to 200 | 95 | – |
| Cn1cc(-c2cnc3[nH]cc(-c4cnn(Cc5cccc(F)c5)c4)c3c2)cn1 [Example-3] | < 50 | 100 | – |
| Cn1cc(-c2cnc3[nH]cc(-c4cnn(Cc5ccc(F)cc5)c4)c3c2)cn1 [Example-4] | 50 to 200 | 93 | – |
| Cn1cc(-c2cnc3[nH]cc(-c4cnn(Cc5cccc(C#N)c5)c4)c3c2)cn1 [Example-5] | < 50 | 95 | – |
| COC(=O)c1cccc(Cn2cc(-c3c[nH]c4ncc(-c5cnn(C)c5)cc34)cn2)c1 [Example-6] | – | 42 | – |
| Cc1nn(Cc2cc(Cl)ccc2F)cc1-c1c[nH]c2ncc(-c3cnn(C)c3)cc12 [Example-7] | > 200 | 93 | 45 |
| Cn1cc(-c2cnc3[nH]cc(-c4cnn(Cc5ccccc5)c4)c3c2)cn1 [Example-8] | 50 to 200 | 98 | – |
| Cn1cc(-c2cnc3[nH]cc(-c4cnn(Cc5ccc(C(C)(C)C)cc5)c4)c3c2)cn1 [Example-9, 3-(1-(4-(tert-butyl)benzyl)-1H-pyrazol-4-yl)-5-(1-methyl-1H-pyrazol-4-yl)-1H-pyrrolo[2,3-b]pyridine] | – | 21 | – |
| Cn1cc(-c2cnc3[nH]cc(-c4cnn(Cc5cc(F)ccc5F)c4)c3c2)cn1 [Example-10] | < 50 | 98 | – |
| Cn1cc(-c2cnc3[nH]cc(-c4cnn(Cc5cccc(C(F)(F)F)c5)c4)c3c2)cn1 [Example-11] | > 200 | 77 | – |
| Cn1cc(-c2cnc3[nH]cc(-c4cnn(Cc5cccc(Cl)c5)c4)c3c2)cn1 [Example-13] | < 50 | 96 | – |
| Cn1cc(-c2cnc3[nH]cc(-c4cnn(Cc5cc(F)cc(F)c5)c4)c3c2)cn1 [Example-14] | < 50 | 100 | – |
| Cn1cc(-c2cnc3[nH]cc(-c4cn(Cc5cccc(F)c5)nc4C(C)(C)C)c3c2)cn1 [Example-15] | – | 6 | 6 |
| Cn1cc(-c2cnc3[nH]cc(-c4cnn(Cc5cccc([N+](=O)[O-])c5)c4)c3c2)cn1 [Example-16, 5-(1-methyl-1H-pyrazol-4-yl)-3-(1-(3-nitrobenzyl)-1H-pyrazol-4-yl)-1H-pyrrolo[2,3-b]pyridine] | 50 to 200 | 92 | 49 |
| Cn1cc(-c2cnc3[nH]cc(-c4cn(Cc5cccc(F)c5)nc4C(F)(F)F)c3c2)cn1 [Example-17] | 50 to 200 | 89 | 62 |
| Cc1nn(Cc2cccc(F)c2)c(C)c1-c1c[nH]c2ncc(-c3cnn(C)c3)cc12 [Example-18] | < 50 | 96 | 79 |

| Compound | IC50 [nM] | inhibition at 1 µM [%] | inhibition at 0.1 µM [%] |
| --- | --- | --- | --- |
| Cc1nn(Cc2cc(F)cc(F)c2)c(C)c1-c1c[nH]c2ncc(-c3cnn(C)c3)cc12 [Example-19] | < 50 | 96 | 80 |
| Cn1cc(-c2cnc3[nH]cc(-c4cnn(CCc5ccccc5)c4)c3c2)cn1 [Example-20A] | 50 to 200 | 92 | 53 |
| Cn1cc(-c2cnc3[nH]cc(-c4cnn(Cc5cccc(O)c5)c4)c3c2)cn1 [Example-20] | < 50 | 99 | 81 |
| Cn1cc(-c2cnc3[nH]cc(-c4cnn(Cc5cccc(N)c5)c4)c3c2)cn1 [Example-21, 3-((4-(5-(1-methyl-1H-pyrazol-4-yl)-1H-pyrrolo[2,3-b]pyridin-3-yl)-1H-pyrazol-1-yl)methyl)aniline] | – | 90 | – |
| Fc1cc(F)cc(Cn2cc(-c3c[nH]c4ncc(-c5cnn(C6CCNCC6)c5)cc34)cn2)c1 [Example-22, 3-(1-(3,5-difluorobenzyl)-1H-pyrazol-4-yl)-5-(1-(piperidin-4-yl)-1H-pyrazol-4yl)-1H-pyrrolo[2,3-b]pyridinehydrochloride] | < 50 | 100 | 97 |
| Fc1cccc(Cn2cc(-c3c[nH]c4ncc(-c5cnn(C6CCNCC6)c5)cc34)cn2)c1 [Example-23] | < 50 | 94 | 80 |
| Cc1nn(Cc2cccc(F)c2)c(C)c1-c1c[nH]c2ncc(-c3cnn(C4CCNCC4)c3)cc12 [Example-24] | < 50 | 94 | 76 |
| Cc1nn(Cc2cccc(O)c2)c(C)c1-c1c[nH]c2ncc(-c3cnn(C4CCNCC4)c3)cc12 [Example-25] | 50 to 200 | 95 | 70 |
| Cc1nn(Cc2cccc(F)c2)cc1-c1c[nH]c2ncc(-c3cnn(C4CCNCC4)c3)cc12 [Example-26] | < 50 | 96 | 79 |
| Cc1c(-c2c[nH]c3ncc(-c4cnn(C5CCNCC5)c4)cc23)cnn1Cc1cccc(F)c1 [Example-27] | < 50 | 98 | 79 |
| OCCn1cc(-c2cnc3[nH]cc(-c4cnn(Cc5cccc(F)c5)c4)c3c2)cn1 [Example-28, 2-(4-(3-(1-(3-fluorobenzyl)-1H-pyrazol-4-yl)-1H-pyrrolo[2,3-b]pyridin-5-yl)-1H-pyrazol-1-yl)ethanol] | < 50 | 98 | 96 |
| Cc1nn(Cc2cccc(F)c2)c(C)c1-c1c[nH]c2ncc(-c3cnn(CCO)c3)cc12 [Example-29] | < 50 | 100 | 73 |
| OCCCn1cc(-c2cnc3[nH]cc(-c4cnn(Cc5cccc(F)c5)c4)c3c2)cn1 [Example-30] | < 50 | 99 | 88 |
| c1ccc(CCn2cc(-c3c[nH]c4ncc(-c5cnn(C6CCNCC6)c5)cc34)cn2)cc1 [Example-31, 3-(1-phenethyl-1H-pyrazol-4-yl)-5-(1-(piperidin-4-yl)-1H-pyrazol-4-yl)-1H-pyrrolo[2,3-b]pyridine] | 50 to 200 | 95 | 59 |
| C[C@H](O)CN1CCC(n2cc(-c3cnc4[nH]cc(-c5cnn(Cc6cccc(F)c6)c5)c4c3)cn2)CC1 [Example-32, (S)-1-(4-(4-(3-(1-(3-fluorobenzyl)-1H-pyrazol-4-yl)-1H-pyrrolo[2,3-b]pyridin-5-yl)-1H-pyrazol-1-yl)piperidin-1-yl)propan-2-ol] | < 50 | 99 | 90 |
